According to patent publication US20210214375A1 (LUNDBECK LA JOLLA RESEARCH CENTER, INC., priority 2017, published 2021):

Legend:
MGLL = molecular target: T1, MGLL (Mus musculus, UniProt O35678); experiment: In vitro competitive activity-based protein profiling, mouse brain proteome; format: biochemical
T1 construct: Brain; from tissue; host or cells: mouse brain proteome
T1 sequence (O35678 1-303): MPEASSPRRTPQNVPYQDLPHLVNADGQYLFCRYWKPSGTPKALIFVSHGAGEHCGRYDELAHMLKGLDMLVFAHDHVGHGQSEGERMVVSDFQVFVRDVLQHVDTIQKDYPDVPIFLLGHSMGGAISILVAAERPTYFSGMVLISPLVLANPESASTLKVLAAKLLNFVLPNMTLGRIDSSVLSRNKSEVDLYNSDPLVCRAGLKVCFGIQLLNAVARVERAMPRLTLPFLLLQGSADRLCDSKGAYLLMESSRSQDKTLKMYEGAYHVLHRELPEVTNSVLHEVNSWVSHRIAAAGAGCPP
Experimental: [Worded in the source for another species; this species is reported under the same test.] (§1) Proteomes (human prefrontal cortex or cell membrane fractions) (50 μL, 1.0 mg/mL total protein concentration) were preincubated with varying concentrations of inhibitors at 37° C. After 30 min, FP—Rh or HT-01 (1.0 μL, 50 μM in DMSO) was added and the mixture was incubated for another 30 min at room temperature. Reactions were quenched with SDS loading buffer (15 μL-4×) and run on SDS-PAGE.

ABHD6 = molecular target: T2, ABHD6 (Mus musculus, UniProt Q8R2Y0); experiment: In vitro competitive activity-based protein profiling, mouse brain proteome, ABHD6; format: biochemical; conditions: for IC50: mouse
T2 construct: Brain; from tissue; host or cells: mouse brain proteome
T2 sequence (Q8R2Y0 1-336): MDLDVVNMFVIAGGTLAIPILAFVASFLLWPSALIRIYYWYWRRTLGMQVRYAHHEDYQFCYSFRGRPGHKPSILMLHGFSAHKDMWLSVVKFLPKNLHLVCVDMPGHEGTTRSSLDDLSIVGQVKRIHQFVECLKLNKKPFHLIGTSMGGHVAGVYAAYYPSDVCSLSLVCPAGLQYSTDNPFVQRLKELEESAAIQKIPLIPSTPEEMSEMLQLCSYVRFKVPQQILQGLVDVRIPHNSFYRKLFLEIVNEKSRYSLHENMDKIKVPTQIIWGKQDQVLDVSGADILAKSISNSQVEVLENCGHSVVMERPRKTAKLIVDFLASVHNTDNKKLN
Experimental: [Worded in the source for another target; this target is reported under the same test.] as §1

IC50 (MGLL) | IC50 (ABHD6) | SMILES | % Inh MGLL Brain (Mouse, μM) (MGLL) | % Inh ABHD6 Brain (Mouse, μM) (ABHD6; mouse brain proteome)
< 100 nM | < 100 nM | O=C(OC(C(F)(F)F)C(F)(F)F)N1CCC2(CC1)CN(Cc1c(Cl)cccc1N1CCC(F)CC1)C2 [Example 47, 1,1,1,3,3,3-Hexafluoropropan-2-yl 2-(2-chloro-6-(4-fluoropiperidin-1-yl)benzyl)-2,7-diazaspiro[3.5]nonane-7-carboxylate] |  | 
< 100 nM | < 100 nM | O=C(OC(C(F)(F)F)C(F)(F)F)N1CCC2(CC1)CN(Cc1c(Cl)cccc1N1CCC3(CCOCC3)C1)C2 [Example 48, 1,1,1,3,3,3-Hexafluoropropan-2-yl 2-(2-chloro-6-(8-oxa-2-azaspiro[4.5]decan-2-yl)benzyl)-2,7-diazaspiro[3.5]nonane-7-carboxylate] |  | 
 |  | O=C(O)C1CCN(c2ccc(CN3CCC4(CC3)CN(C(=O)OC(C(F)(F)F)C(F)(F)F)C4)cc2)CC1 [Example 66, 1-(4-((2-(((1,1,1,3,3,3-Hexafluoropropan-2-yl)oxy)carbonyl)-2,7-diazaspiro[3.5]nonan-7-yl)methyl)phenyl) piperidine-4-carboxylic acid] | ## (## is between 25 and 75%) | ### (### is ≥ 75%)
< 100 nM | < 100 nM | O=C(OC(C(F)(F)F)C(F)(F)F)N1CCC2(CC1)CN(Cc1ccc(Cl)c(Cl)c1)C2 [Example 67, 1,1,1,3,3,3-Hexafluoropropan-2-yl 2-(3,4-dichlorobenzyl)-2,7-diazaspiro[3.5]nonane-7-carboxylate] |  | 
< 100 nM | < 100 nM | O=C(OC(C(F)(F)F)C(F)(F)F)N1CCC2(CC1)CN(Cc1cccc(Oc3ccccc3)c1)C2 [Example 78, 1,1,1,3,3,3-Hexafluoropropan-2-yl 2-(3-phenoxybenzyl)-2,7-diazaspiro[3.5]nonane-7-carboxylate] |  | 
< 100 nM | > 1000 nM | O=C(OC(C(F)(F)F)C(F)(F)F)N1CCC2(CC1)CN(Cc1ccc(N3CCCC3)cc1)C2 [Example 80, 1,1,1,3,3,3-Hexafluoropropan-2-yl 2-(4-(pyrrolidin-1-yl)benzyl)-2,7-diazaspiro[3.5]nonane-7-carboxylate] |  | 
< 100 nM | 100 to 1000 nM | O=C(OC(C(F)(F)F)C(F)(F)F)N1CCC2(CCCN2C(=O)c2ccc(C(F)(F)F)cc2)CC1 [Example 83, 1,1,1,3,3,3-Hexafluoropropan-2-yl 1-(4-(trifluoromethyl)benzoyl)-1,8-diazaspiro[4.5]decane-8-carboxylate] |  | 
< 100 nM | < 100 nM | Cc1cccc(CN2CC3(CCN(C(=O)OC(C(F)(F)F)C(F)(F)F)CC3)C2)c1 [Example 86, 1,1,1,3,3,3-Hexafluoropropan-2-yl 2-(3-methylbenzyl)-2,7-diazaspiro[3.5]nonane-7-carboxylate] |  | 
< 100 nM | < 100 nM | O=C(OC(C(F)(F)F)C(F)(F)F)N1CCC2(CC1)CN(Cc1cccc(C(F)(F)F)c1)C2 [Example 89, 1,1,1,3,3,3-Hexafluoropropan-2-yl 2-(3-(trifluoromethyl)benzyl)-2,7-diazaspiro[3.5]nonane-7-carboxylate] |  | 
100 to 1000 nM | 100 to 1000 nM | O=C(OC(C(F)(F)F)C(F)(F)F)N1CC2(CCN(Cc3c(N4CCCC4)cccc3C(F)(F)F)CC2)C1 [Example 148, 1,1,1,3,3,3-Hexafluoropropan-2-yl 7-(2-(pynrolidin-1-yl)-4-(trifluoromethyl)benzyl)-2,7-diazaspiro[3.5]nonane-2-carboxylate] |  | 
< 100 nM | < 100 nM | CC(=O)N1CCCc2cccc(CN3CCC4(CC3)CN(C(=O)OC(C(F)(F)F)C(F)(F)F)C4)c21 [Example 152, 1,1,1,3,3,3-Hexafluoropropan-2-yl 7-((1-acetyl-1,2,3,4-tetrahydroquinolin-8-yl)methyl)-2,7-diazaspiro[3.5]nonane-2-carboxylate] |  | 
100 to 1000 nM | > 1000 nM | CN1CC2(CCN(c3cc(Cl)ccc3CN3CCN(C(=O)OC(C(F)(F)F)C(F)(F)F)CC3)C2)C1 [Example 169, 1,1,1,3,3,3-Hexafluoropropan-2-yl 4-(4-chloro-2-(2-methyl-2,6-diazaspiro[3.4]octan-6-yl)benzyl)piperazine-1-carboxylate] |  | 
100 to 1000 nM | > 1000 nM | CCN1CCC2(CCN(c3cc(Cl)ccc3CN3CCN(C(=O)OC(C(F)(F)F)C(F)(F)F)CC3)CC2)C1 [Example 170, 1,1,1,3,3,3-Hexafluoropropan-2-yl 4-(4-chloro-2-(2-ethyl-2,8-diazaspiro[4.5]decan-8-yl)benzyl)piperazine-1-carboxylate] |  | 
100 to 1000 nM | > 1000 nM | CCN1CC2(CCN(c3cc(Cl)ccc3CN3CCN(C(=O)OC(C(F)(F)F)C(F)(F)F)CC3)C2)C1 [Example 173, 1,1,1,3,3,3-Hexafluoropropan-2-yl 4-(4-chloro-2-(2-ethyl-2,6-diazaspiro[3.4]octan-6-yl)benzyl)piperazine-1-carboxylate] |  | 
100 to 1000 nM | > 1000 nM | O=C(OC(C(F)(F)F)C(F)(F)F)N1CCC2(CCN(Cc3ccc(C(F)(F)F)cc3N3CC4COCC4C3)CC2)C1 (stereo not drawn) [Example 188, 1,1,1,3,3,3-Hexafluoropropan-2-yl 8-(2-(tetrahydro-1H-furo[3,4-c]pyrrol-5(3H)-yl)-4-(trifluoromethyl)benzyl)-2,8-diazaspiro[4.5]decane-2-carboxylate] |  | 
> 1000 nM | > 1000 nM | CC(=O)N1CCCc2cccc(CN3CCC4(CC3)CCN(C(=O)OC(C(F)(F)F)C(F)(F)F)C4)c21 [Example 193, 1,1,1,3,3,3-Hexafluoropropan-2-yl 8-((1-acetyl-1,2,3,4-tetrahydroquinolin-8-yl)methyl)-2,8-diazaspiro[4.5]decane-2-carboxylate] |  | 
< 100 nM | > 1000 nM | CC(=O)N1CC2CN(c3cc(C(F)(F)F)ccc3CN3CCN(C(=O)OC(C(F)(F)F)C(F)(F)F)CC3)CC2C1 (stereo not drawn) [Example 200, 1,1,1,3,3,3-Hexafluoropropan-2-yl 4-(2-(5-acetylhexahydropyrrolo[3,4-c]pyrrol-2(1H)-yl)-4-(trifluoromethyl)benzyl)piperazine-1-carboxylate] |  | 
< 100 nM | > 1000 nM | CS(=O)(=O)N1CC2CN(c3cc(C(F)(F)F)ccc3CN3CCN(C(=O)OC(C(F)(F)F)C(F)(F)F)CC3)CC2C1 (stereo not drawn) [Example 201, 1,1,1,3,3,3-Hexafluoropropan-2-yl 4-(2-(5-(methylsulfonyl)hexahydropyrrolo[3,4-c]pyrrol-2(1H)-yl)-4-(trifluoromethyl)benzyl)piperazine-1-carboxylate] |  | 
100 to 1000 nM | > 1000 nM | CC(=O)N1CC2CN(c3cc(Cl)ccc3CN3CCN(C(=O)OC(C(F)(F)F)C(F)(F)F)CC3)CC2C1 (stereo not drawn) [Example 202, 1,1,1,3,3,3-Hexafluoropropan-2-yl 4-(2-(5-acetylhexahydro-pyrrolo[3,4-c]pyrrol-2(1H)-yl)-4-chlorobenzyl) piperazine-1-carboxylate] |  | 
100 to 1000 nM | > 1000 nM | CS(=O)(=O)N1CC2CN(c3cc(Cl)ccc3CN3CCN(C(=O)OC(C(F)(F)F)C(F)(F)F)CC3)CC2C1 (stereo not drawn) [Example 203, 1,1,1,3,3,3-Hexafluoropropan-2-yl 4-(4-chloro-2-(5-(methylsulfonyl)hexahydropyrrolo[3,4-c]pyrrol-2(1H)-yl)benzyl)piperazine-1-carboxylate] |  | 
100 to 1000 nM | > 1000 nM | CC(=O)N1CCCC12CCN(c1cc(Cl)ccc1CN1CCN(C(=O)OC(C(F)(F)F)C(F)(F)F)CC1)CC2 [Example 204, 1,1,1,3,3,3-Hexafluoropropan-2-yl 4-(2-(1-acetyl-1,8-diazaspiro[4.5]decan-8-yl)-4-chlorobenzyl) piperazie-1-carboxylate] |  | 
100 to 1000 nM | > 1000 nM | CS(=O)(=O)N1CCCC12CCN(c1cc(Cl)ccc1CN1CCN(C(=O)OC(C(F)(F)F)C(F)(F)F)CC1)CC2 [Example 205, 1,1,1,3,3,3-Hexafluoropropan-2-yl 4-(4-chloro-2-(1-(methylsulfonyl)-1,8-diazaspiro[4.5]decan-8-yl)benzyl)piperazine-1-carboxylate] |  | 
100 to 1000 nM | > 1000 nM | CN1CC2CN(c3cc(Cl)ccc3CN3CCN(C(=O)OC(C(F)(F)F)C(F)(F)F)CC3)CC2C1 (stereo not drawn) [Example 206, 1,1,1,3,3,3-Hexafluoropropan-2-yl 4-(4-chloro-2-(5-methylhexahydro-pyrrolo[3,4-c]pyrrol-2(1H)-yl)benzyl)piperazine-1-carboxylate] |  | 
100 to 1000 nM | > 1000 nM | CC(=O)N1CCCC12CCN(c1cc(C(F)(F)F)ccc1CN1CCN(C(=O)OC(C(F)(F)F)C(F)(F)F)CC1)CC2 [Example 208, 1,1,1,3,3,3-Hexafluoropropan-2-yl 4-(2-(1-acetyl-1,8-diazaspiro[4.5]decan-8-yl)-4-(trifluoromethyl)benzyl)piperazine-1-carboxylate] |  | 
